Structures can show the parent of a compound that is named as a salt. Where two headings read alike, the source gives them in different places.
Experiments:
5HT-2A receptor = target: T1, 5HT-2A receptor (Rattus norvegicus, UniProt P14842); test: 5HT-2A radioligand binding (3H-ketanserin, rat frontal cortex); settings: 3H-ketanserin 0.4 nM, pH 7.7, read-out: Radioligand Binding Results, 5HT2 (IC50)
T1 construct: rat frontal; from tissue; host or cells: rat frontal cortex
Text: (§1) The compound of formula I is therefore useful in the treatment or prevention of psychotic disorders, such as schizophrenia. […] Specifically, the standard methods for determining neuroleptic activity are based on Dopamine D-2, Dopamine D-3, Dopamine D4, 5-hydroxytryptamine-1A (5-HT-1A), 5-hydroxytryptamine-2C (5-HT-2C), and 5-hydroxytryptamine-2A (5-HT-2A) receptor binding studies. Tissues or membranes used to perform these studies are derived from rat, pig, or from cell lines expressing human receptor subtypes. LTK-cells expressing the human D2Long receptor were obtained from Dr. Olivier Civelli, Oregon Health Sciences University, Portland, Oreg. Chinese hamster ovary cells (CHO) expressing the human D3 receptor were obtained from Dr. J. C. […]
(§2) The following protocol describes one possible method for determining activity for the compound of formula I. Specific assay conditions for each receptor is described in Table 1, below. […] Non-specific binding is determined by radioligand binding in the presence of a saturating excess of a known competitor for the receptor of interest (as listed in Table 1). […] Membrane-bound ligand is determined by liquid scintillation counting of the filters in Ready-Safe scintillation cocktail (for tritiated ligands), or by direct counting in a gamma counter (for [^125 .vertline.] ligands). […]

Dopamine D-3 receptor = target: T2, Dopamine D-3 receptor (Homo sapiens, UniProt P35462); test: Dopamine D-3 radioligand binding (3H-spiroperidol, human D3-transfected CHO cells); settings: 3H-spiroperidol 0.1 nM, pH 7.4, read-out: Radioligand Binding Results, D3 (apparent Ki)
T2 construct: expressed in transfected cells; host or cells: CHO cells (from Dr. J. C. Schwartz, INSERM, Paris)
Text: as §1, §2

5HT-1A receptor = target: T3, 5HT-1A receptor (Rattus norvegicus, UniProt P19327); test: 5HT-1A radioligand binding (3H-8OH-DPAT, rat cortex); settings: 3H-8OH-DPAT 1.5 nM, pH 7.7, read-out: Radioligand Binding Results, 5HT1A (IC50)
T3 construct: rat cortex; from tissue; host or cells: rat cortex
T3 sequence (P19327 1-422): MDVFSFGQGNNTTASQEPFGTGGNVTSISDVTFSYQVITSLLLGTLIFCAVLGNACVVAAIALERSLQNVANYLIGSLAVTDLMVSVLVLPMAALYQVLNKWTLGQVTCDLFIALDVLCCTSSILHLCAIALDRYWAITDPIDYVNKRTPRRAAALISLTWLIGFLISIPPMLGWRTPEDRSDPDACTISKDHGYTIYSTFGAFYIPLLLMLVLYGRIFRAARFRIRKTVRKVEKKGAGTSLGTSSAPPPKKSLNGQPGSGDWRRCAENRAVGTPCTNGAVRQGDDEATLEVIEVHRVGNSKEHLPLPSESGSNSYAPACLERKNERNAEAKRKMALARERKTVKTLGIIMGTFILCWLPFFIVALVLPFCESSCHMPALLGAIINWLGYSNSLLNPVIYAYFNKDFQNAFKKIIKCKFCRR
Text: as §1, §2

Dopamine D-4 receptor = target: T4, Dopamine D-4 receptor (Homo sapiens, UniProt P21917); test: Dopamine D-4 radioligand binding (3H-spiroperidol, human D4-transfected COS-7 cells); settings: 3H-spiroperidol 0.1 nM, pH 7.4, read-out: Radioligand Binding Results, D4 (apparent Ki)
T4 construct: expressed in transfected cells; host or cells: COS-7 cells
T4 sequence (P21917 1-419): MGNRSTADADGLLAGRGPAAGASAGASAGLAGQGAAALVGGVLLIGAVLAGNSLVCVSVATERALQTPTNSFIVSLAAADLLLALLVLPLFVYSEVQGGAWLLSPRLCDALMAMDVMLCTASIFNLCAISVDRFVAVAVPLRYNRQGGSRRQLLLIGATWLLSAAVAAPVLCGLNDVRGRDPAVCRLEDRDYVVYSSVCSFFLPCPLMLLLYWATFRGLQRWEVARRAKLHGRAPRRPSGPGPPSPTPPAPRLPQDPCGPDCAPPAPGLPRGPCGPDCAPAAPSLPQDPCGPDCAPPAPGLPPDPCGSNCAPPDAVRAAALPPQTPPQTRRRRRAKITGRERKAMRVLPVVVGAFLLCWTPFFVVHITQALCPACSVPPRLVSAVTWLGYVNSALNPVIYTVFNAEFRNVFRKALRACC
Text: as §1, §2

aqueous solubility = format: physicochemical; settings: dihydrochloride salt, at about 25° C.
[1] = titration with 0.2032 Molar sodium hydroxide (pKa); format: physicochemical; settings: dihydrochloride titrated with 0.2032 M NaOH
Protocol: The compound (5.0 g, 12.1 mmol) from Example 1 was suspended in 75 mL of THF at room temperature, and then 1.97 mL of concentrated hydrochloric acid was slowly added over 30 min affording a gummy solid. Water (5 mL) was added and the gummy solids were stirred for 6 hours to produce a finely divided solid which was granulated overnight. The mixture was filtered and the filter cake was washed with THF (10 mL). The product was dried in vacuo at 25° C. overnight under a nitrogen bleed to give 5.87 g of the title dihydrochloride compound as a tan solid (mp=232-240° C. with decomposition).

T2 sequence (P35462 whole entry): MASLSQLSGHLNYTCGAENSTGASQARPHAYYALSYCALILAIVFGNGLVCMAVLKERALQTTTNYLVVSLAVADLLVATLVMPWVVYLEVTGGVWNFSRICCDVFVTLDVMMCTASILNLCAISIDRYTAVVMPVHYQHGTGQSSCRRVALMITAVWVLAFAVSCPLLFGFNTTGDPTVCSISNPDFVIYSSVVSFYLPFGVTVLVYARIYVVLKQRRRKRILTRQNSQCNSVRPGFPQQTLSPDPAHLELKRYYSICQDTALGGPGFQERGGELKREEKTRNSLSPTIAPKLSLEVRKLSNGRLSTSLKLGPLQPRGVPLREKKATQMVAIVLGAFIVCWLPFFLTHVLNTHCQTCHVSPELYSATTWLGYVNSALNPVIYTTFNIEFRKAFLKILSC
T1 sequence (P14842 whole entry): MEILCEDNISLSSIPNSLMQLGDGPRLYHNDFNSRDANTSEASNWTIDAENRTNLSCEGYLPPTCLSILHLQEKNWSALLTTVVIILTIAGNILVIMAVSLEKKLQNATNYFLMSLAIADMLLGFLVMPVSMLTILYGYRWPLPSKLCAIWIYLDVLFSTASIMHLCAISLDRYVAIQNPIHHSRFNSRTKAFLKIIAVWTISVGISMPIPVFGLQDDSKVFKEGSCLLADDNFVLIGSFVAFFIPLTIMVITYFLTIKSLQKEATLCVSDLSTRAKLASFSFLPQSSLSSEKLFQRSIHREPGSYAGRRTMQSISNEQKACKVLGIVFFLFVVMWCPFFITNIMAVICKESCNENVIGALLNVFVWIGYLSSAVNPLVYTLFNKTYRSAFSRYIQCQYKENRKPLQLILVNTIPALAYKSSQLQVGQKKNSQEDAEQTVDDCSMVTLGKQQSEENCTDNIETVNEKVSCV

Structure (SMILES) | IC50 (5HT-2A receptor) | Ki (Dopamine D-3 receptor) | IC50 (5HT-1A receptor) | Ki (Dopamine D-4 receptor) | aqueous solubility relative to ziprasidone hydrochloride (times higher) (aqueous solubility) | solubility (aqueous solubility; water) | pKa ([1]; first equivalence point pH 4.33, read-out: pKa (first)) | pKa ([1]; second equivalence point pH 8.22, read-out: pKa (second))
N=C(c1ccccc1S)N1CCN(CCc2cc3c(cc2Cl)NC(=O)C3)CC1 [Example 1, 1-[2-(6-chloro-2,3-dihydro-2-oxo-1H-indol-5-yl)ethyl]-4-[imino(2-mercaptophenyl)methyl]piperazine] | 0.35 nM | 5.8 nM | 12 nM | 59.2 nM |  |  |  | 
N=C(c1ccccc1S)N1CCN(CCc2cc3c(cc2Cl)NC(=O)C3)CC1 [Example 2, 1-[2-(6-Chloro-2.3-dihydro-2-oxo-1H-indol-5-yl)ethyl]-4-[(imino(2-mercaptophenyl)methyl]piperazinedihydrochloride] |  |  |  |  | approximately 300 times | ~25 mg/mL | 3.1 | 5.5

Reference: patent publication US5935960A, “Pro-drugs of 5-(2-(4-(1,2-benzisothiazol-3-yl)-1-piperazinyl)ethyl)-6-chloro-1,3-dihy dro-2H-indol-2-one” (Pfizer Inc., priority 1997, dated 1999)
